PMC10178848, “Modulating fast skeletal muscle contraction protects skeletal muscle in animal models of Duchenne muscular dystrophy” (The Journal of Clinical Investigation, 2023)
Where two headings read alike, the source gives them in different places.

Tests used:
[1] = molecular target: T1, bovine cardiac myofibrils (Bos taurus, UniProt Q9BE39); assay: Myofibril ATPase, bovine cardiac; type: biochemical; details: bovine cardiac ventricle; at pCa50
T1 construct: from tissue; host or cells: bovine cardiac ventricle
Protocol: Myofibrils were prepared from various animals and tissues: rabbit psoas muscle and porcine cardiac muscle were purchased from Pel-Freez Biologicals. Human bicep and soleus muscle were purchased from BioIVT, and neonatal rat muscle was obtained in house. All myofibrils were prepared using published methods ([21]).
A lactate dehydrogenase/pyruvate kinase enzyme-coupled system ([62]) was used to monitor ATP hydrolysis rates in various muscle preparations. Rabbit psoas myofibrils were used for high-throughput screening at pCa 6.25 at 0.25 mg/mL. A multidrop cassette (Thermo Fisher Scientific) dispensed 10 μL of the coupled enzyme system, calcium, and myofibrils to 10 μL ATP, NADH and PEP to initiate the reaction prior to reading on a plate reader (Envision, Perkin Elmer) for 10 minutes per plate at room temperature. Hits were reconfirmed, and secondary assays were used to evaluate selectivity, including bovine cardiac myofibrils (pCa 5.86) and enzyme coupled hits with a hexokinase screen (Sigma-Aldrich).

[2] = molecular target: mouse gastrocnemius myofibrils; assay: Myofibril ATPase, mouse gastrocnemius; type: biochemical; details: 21% IIa, 15% IIx, 56% IIb
mdx mice = assay: Chronic 8-week dosing in mdx mice (fibrosis, weights, histology); type: in vivo, mouse
Source text: C57BL/6 (stock no. 000664), C57BL/10J (stock no. 000665, control for mdx experiments), C57BL/10ScSn-Dmd^mdx/J (mdx, stock no. 001801), and D2.B10 (DBA/2-congenic) Dmd^mdx (DBA/2J mdx, stock no. 013141) mice were from The Jackson Laboratory. Sprague-Dawley rats were purchased from Charles River Laboratories. For ex vivo experiments, mice were 10–16 weeks old. For in situ experiments, mice were 8–14 weeks of age. For in vivo chronic dosing studies, mdx and DBA/2J mdx were 4–5 weeks of age at study start. Dosing was via a 10 mL/kg suspension (1% methyl cellulose, 0.1% Tween 80 in water). For studies in 14-day-old preweaning mice, PO dosing was via syrup suspension (3 mg/kg/d). GRMD were supplied by Texas A&M Department of Veterinary Integrative Biosciences.
For sterile muscle injury, mice were anesthetized with isoflurane and 50 μL cardiotoxin (12 × 10^–6 M, 217503, Millipore) injected in the TA muscle. Muscles 8 days after injury were snap frozen in nitrogen-chilled isopentane. 8 μm cryosections were cut and stained with H&E. For each analysis, more than 10 slides (per condition/group) containing 6 muscle sections/sample were used, and myofibers in the injured area were counted and measured with a Mirax digital scanner and HALO software ([68]). For adult mouse studies, muscles were fixed in 10% formalin and embedded in paraffin for sectioning. Laminin staining (RB-082, Thermo Fisher Scientific) was used to outline fibers, and picrosirius red was used for collagen accumulation. Image analysis was performed using ImarisX64 software (Bitplane AG), and fiber sizing was calculated using minimal Feret’s diameter ([69]). For after weaning juvenile mouse studies, cryosections from soleus muscles were mounted in ProLong antifade mountant with DAPI (Thermo Fisher Scientific). Fiber type, size, and central nucleation were quantified with analysis via SMASH ([70]) and ImageJ (NIH). Antibodies used were mouse anti-MHC2A (1:50, SC-71, Developmental Studies Hybridoma Bank) and mouse anti-eMHC (1:10, BF-45, Developmental Studies Hybridoma Bank).

[3] = tested on: dystrophic golden retriever (GRMD) dogs; assay: Habitual activity in GRMD dogs (FitBark); type: in vivo, dog; details: 2 mg/kg daily for 4 days, then every other day
Protocol: Studies were performed in two phases. In the first phase, GRMD (n = 4, female, 7 months old) were dosed PO daily with vehicle for 2 weeks, followed by a suspension of EDG-5506 (3 mg/kg daily for 2 days, then 1 mg/kg daily for 2 weeks) and then with vehicle for 2 weeks. Blood was drawn at regular intervals (2–3 draws during the vehicle baseline, 5–8 draws during the dosing period, and 2 draws during the vehicle washout). In a separate dosing period, the same 4 dogs (10 months old) were administered vehicle for 14 days with regular blood draws (6–9 for each dog across the 14-day period). CK activity (Pointe Scientific, Thermo Fisher Scientific) was measured from plasma. In the second phase, the same 4 dogs (15 months old) were fitted with a collar-bound activity monitor (Fitbark 2, Fitbark Inc.) as described previously ([42]), and baseline activity was recorded for 27 days before daily oral gavage with vehicle for 22 days. Three dogs were then dosed in a similar pattern to phase 1 with EDG-5506 (2 mg/kg for 4 days and then 2 mg/kg every other day for 7 days). The fourth dog was dosed with vehicle over the same period. Dogs were then returned to vehicle for a further 12 days. Average daily activity (“Fitbark points”) and time performing various activities (play, rest, active) were recorded.

[4] = molecular target: T2, ABL1(E255K)-phosphorylated (Homo sapiens, UniProt P00519, E255K); assay: KINOMEscan scanEDGE; type: binding; details: 20 uM
T2 construct: purchased Eurofins DiscoverX (KINOMEscan; SAFETYscan E/IC50 ELECT)

CHEK1 = molecular target: T3, CHEK1 (Homo sapiens, UniProt O14757); assay: KINOMEscan scanEDGE; type: binding; details: 20 uM
T3 construct: purchased Eurofins DiscoverX (KINOMEscan; SAFETYscan E/IC50 ELECT)

DYRK1B = molecular target: T4, DYRK1B (Homo sapiens, UniProt Q9Y463); assay: KINOMEscan scanEDGE; type: binding; details: 20 uM
T4 construct: purchased Eurofins DiscoverX (KINOMEscan; SAFETYscan E/IC50 ELECT)

GSK3B = molecular target: T5, GSK3B (Homo sapiens, UniProt P49841); assay: KINOMEscan scanEDGE; type: binding; details: 20 uM
T5 construct: purchased Eurofins DiscoverX (KINOMEscan; SAFETYscan E/IC50 ELECT)

MET = molecular target: T6, MET (Homo sapiens, UniProt P08581); assay: KINOMEscan scanEDGE; type: binding; details: 20 uM
T6 construct: purchased Eurofins DiscoverX (KINOMEscan; SAFETYscan E/IC50 ELECT)

p38-beta = molecular target: T7, p38-beta (Homo sapiens, UniProt Q15759); assay: KINOMEscan scanEDGE; type: binding; details: 20 uM
T7 construct: purchased Eurofins DiscoverX (KINOMEscan; SAFETYscan E/IC50 ELECT)

SRPK3 = molecular target: T8, SRPK3 (Homo sapiens, UniProt Q9UPE1); assay: KINOMEscan scanEDGE; type: binding; details: 20 uM
T8 construct: purchased Eurofins DiscoverX (KINOMEscan; SAFETYscan E/IC50 ELECT)

TRKA = molecular target: T9, TRKA (Homo sapiens, UniProt P04629); assay: KINOMEscan scanEDGE; type: binding; details: 20 uM
T9 construct: purchased Eurofins DiscoverX (KINOMEscan; SAFETYscan E/IC50 ELECT)

OPRM1 = molecular target: T10, OPRM1 (Homo sapiens, UniProt P35372); assay: SAFETYscan cAMP; type: cell-based; parameters: dose or concentration left out as unconfirmed
T10 construct: purchased Eurofins DiscoverX (KINOMEscan; SAFETYscan E/IC50 ELECT)
Protocol: (§1) The specificity of EDG-5506 for fast skeletal myosin over other, unrelated proteins was confirmed using two off-target binding and activity screens. […] A second off-target panel (SAFETYscan E/IC50 ELECT, Eurofins DiscoverX) tested in vitro enzyme activity against 78 proteins, including GPCR, ion channel, kinases, nuclear hormone receptors, and transporters. In all assays, the IC50 of EDG-5506 was more than 10 μM (Supplemental Data File 1).

GR = molecular target: T11, GR (Homo sapiens, UniProt P04150); assay: SAFETYscan NHR Protein Interaction; type: cell-based; parameters: dose or concentration left out as unconfirmed
T11 construct: purchased Eurofins DiscoverX (KINOMEscan; SAFETYscan E/IC50 ELECT)
Protocol: as §1

[5] = read-out: Max Response (%) (Agonist)
[6] = read-out: Max Response (%) (Antagonist)

T11 sequence (P04150 whole entry): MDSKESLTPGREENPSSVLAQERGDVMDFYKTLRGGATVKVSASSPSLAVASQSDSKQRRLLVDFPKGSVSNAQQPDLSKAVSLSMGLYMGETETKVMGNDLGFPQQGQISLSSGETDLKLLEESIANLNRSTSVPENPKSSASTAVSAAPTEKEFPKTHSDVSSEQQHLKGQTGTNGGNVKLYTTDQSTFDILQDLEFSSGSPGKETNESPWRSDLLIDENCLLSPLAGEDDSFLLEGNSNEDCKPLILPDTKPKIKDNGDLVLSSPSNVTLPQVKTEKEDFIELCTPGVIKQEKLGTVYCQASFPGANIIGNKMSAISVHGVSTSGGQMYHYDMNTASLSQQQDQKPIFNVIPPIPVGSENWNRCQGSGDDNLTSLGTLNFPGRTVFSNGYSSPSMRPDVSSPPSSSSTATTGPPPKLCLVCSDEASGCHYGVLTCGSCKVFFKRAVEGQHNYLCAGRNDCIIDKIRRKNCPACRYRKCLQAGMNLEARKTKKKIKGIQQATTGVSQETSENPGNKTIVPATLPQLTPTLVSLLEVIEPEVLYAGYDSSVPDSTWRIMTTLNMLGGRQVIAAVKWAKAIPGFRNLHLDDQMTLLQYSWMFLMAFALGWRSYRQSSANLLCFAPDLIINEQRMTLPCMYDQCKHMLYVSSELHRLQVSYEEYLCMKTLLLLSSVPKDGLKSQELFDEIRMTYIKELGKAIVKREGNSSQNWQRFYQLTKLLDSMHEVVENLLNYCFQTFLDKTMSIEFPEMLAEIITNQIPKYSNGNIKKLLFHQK
T10 sequence (P35372 whole entry): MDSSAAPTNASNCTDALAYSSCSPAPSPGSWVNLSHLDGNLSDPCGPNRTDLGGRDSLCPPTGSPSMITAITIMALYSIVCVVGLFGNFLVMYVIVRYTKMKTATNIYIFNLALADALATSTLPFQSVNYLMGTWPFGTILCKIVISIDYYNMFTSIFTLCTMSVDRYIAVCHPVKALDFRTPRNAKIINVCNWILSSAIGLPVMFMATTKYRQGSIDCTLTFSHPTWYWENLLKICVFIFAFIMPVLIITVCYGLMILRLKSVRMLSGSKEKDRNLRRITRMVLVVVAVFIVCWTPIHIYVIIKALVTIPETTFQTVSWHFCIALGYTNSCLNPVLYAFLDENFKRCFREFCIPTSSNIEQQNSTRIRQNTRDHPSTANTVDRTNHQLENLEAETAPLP
T6 sequence (P08581 25-1390): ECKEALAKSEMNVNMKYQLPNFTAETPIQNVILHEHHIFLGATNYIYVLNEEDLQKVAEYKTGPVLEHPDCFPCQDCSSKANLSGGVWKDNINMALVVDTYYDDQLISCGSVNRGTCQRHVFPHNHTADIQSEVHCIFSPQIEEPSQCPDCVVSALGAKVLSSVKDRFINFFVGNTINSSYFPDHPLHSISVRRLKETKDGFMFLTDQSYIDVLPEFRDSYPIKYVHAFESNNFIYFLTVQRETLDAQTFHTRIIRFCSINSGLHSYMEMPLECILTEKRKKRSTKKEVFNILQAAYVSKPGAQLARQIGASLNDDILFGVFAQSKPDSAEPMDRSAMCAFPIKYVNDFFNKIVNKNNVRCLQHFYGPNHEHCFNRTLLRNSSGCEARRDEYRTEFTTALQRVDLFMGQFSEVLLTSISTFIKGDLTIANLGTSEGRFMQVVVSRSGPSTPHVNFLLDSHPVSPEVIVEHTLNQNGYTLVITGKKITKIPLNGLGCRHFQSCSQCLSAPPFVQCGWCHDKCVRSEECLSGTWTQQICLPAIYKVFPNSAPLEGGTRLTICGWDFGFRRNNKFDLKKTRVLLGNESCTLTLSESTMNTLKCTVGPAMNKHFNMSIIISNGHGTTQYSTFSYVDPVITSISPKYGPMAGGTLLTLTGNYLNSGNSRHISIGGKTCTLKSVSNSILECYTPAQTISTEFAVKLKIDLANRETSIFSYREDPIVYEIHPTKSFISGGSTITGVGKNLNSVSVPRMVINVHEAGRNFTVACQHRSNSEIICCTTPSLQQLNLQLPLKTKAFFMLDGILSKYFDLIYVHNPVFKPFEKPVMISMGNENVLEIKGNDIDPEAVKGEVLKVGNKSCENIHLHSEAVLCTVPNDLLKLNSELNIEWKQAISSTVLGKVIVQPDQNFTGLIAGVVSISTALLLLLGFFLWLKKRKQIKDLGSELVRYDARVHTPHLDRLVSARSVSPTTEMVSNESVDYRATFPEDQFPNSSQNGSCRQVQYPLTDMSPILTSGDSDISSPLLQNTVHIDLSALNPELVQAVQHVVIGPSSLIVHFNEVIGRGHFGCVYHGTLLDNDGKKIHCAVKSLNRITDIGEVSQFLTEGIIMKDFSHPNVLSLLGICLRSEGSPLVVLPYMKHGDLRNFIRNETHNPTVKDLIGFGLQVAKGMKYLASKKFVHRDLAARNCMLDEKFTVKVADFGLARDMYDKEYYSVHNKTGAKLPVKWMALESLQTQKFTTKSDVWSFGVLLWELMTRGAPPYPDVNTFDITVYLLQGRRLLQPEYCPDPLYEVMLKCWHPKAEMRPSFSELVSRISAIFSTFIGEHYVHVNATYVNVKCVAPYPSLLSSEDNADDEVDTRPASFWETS
T2 sequence (P00519 whole entry E255K): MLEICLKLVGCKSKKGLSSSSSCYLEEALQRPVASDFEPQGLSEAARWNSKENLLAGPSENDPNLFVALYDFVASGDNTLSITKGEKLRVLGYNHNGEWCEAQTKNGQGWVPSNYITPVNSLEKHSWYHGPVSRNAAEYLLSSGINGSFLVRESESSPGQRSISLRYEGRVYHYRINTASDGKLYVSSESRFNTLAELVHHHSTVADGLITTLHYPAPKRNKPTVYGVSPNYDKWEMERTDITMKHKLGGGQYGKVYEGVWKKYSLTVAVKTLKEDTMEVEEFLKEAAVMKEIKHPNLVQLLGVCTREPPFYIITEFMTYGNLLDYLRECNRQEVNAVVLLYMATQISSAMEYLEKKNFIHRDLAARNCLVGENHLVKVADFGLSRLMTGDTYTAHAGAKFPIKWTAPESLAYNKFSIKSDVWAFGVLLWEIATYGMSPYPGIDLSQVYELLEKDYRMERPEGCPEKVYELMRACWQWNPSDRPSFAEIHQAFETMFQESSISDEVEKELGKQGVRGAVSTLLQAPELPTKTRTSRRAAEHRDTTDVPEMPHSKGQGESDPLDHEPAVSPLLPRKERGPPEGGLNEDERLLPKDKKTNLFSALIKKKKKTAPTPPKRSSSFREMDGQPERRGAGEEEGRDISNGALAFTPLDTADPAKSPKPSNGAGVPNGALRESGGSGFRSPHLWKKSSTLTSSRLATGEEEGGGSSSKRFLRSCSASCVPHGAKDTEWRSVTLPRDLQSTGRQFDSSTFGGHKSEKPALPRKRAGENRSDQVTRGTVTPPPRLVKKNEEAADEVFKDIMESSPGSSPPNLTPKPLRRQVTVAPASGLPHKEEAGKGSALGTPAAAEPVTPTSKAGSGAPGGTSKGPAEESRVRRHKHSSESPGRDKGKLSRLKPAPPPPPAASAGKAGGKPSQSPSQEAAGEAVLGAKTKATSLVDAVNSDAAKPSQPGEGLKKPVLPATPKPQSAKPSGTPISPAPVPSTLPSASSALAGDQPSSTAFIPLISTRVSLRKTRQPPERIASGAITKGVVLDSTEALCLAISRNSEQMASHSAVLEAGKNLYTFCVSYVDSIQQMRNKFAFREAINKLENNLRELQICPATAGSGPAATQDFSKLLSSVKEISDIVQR
T9 sequence (P04629 33-796): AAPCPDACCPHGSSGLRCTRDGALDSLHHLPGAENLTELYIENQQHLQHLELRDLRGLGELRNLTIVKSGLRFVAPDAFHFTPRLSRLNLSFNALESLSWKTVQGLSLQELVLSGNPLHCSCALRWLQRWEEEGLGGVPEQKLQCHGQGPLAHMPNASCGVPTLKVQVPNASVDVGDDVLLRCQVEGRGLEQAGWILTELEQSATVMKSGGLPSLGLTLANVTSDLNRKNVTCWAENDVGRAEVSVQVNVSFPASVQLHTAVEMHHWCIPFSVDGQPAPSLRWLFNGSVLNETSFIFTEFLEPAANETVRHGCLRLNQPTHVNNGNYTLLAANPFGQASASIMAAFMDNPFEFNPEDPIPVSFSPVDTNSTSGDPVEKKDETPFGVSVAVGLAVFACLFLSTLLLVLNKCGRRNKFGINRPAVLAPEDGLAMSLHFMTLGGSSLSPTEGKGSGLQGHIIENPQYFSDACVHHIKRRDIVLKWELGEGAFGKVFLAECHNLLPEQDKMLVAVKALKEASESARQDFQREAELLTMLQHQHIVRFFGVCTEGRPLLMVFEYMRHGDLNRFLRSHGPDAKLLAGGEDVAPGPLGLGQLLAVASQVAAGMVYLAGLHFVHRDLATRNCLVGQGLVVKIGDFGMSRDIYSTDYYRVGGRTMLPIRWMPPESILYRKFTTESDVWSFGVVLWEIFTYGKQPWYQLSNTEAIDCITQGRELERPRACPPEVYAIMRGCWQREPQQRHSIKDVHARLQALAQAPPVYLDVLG
T5 sequence (P49841 whole entry): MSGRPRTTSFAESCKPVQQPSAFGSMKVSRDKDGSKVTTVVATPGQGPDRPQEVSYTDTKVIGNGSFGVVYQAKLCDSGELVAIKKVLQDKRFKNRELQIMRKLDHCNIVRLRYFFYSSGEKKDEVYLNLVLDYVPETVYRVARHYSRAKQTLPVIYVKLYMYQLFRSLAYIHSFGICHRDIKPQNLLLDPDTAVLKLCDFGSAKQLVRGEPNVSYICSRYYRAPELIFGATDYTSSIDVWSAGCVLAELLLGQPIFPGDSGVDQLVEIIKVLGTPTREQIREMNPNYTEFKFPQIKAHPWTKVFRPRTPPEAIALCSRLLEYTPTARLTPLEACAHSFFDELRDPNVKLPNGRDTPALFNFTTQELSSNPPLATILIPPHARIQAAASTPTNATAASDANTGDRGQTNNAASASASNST

O=c1ccc(-c2cnc(OCC(F)(F)F)nc2)nn1Cc1cncc(F)c1 [EDG-5506]
IC50 [1]: > 100000 nM | IC50 [2]: 400 nM | body or muscle weight (mdx mice; 8 weeks): no effect | diaphragm fibrosis (collagen, picrosirius red) (mdx mice; 8 weeks of treatment): decreased diaphragm fibrosis | average grip strength (mdx mice; after 5 weeks of dosing): increased average grip strength | improvement of average daily activity [3]: more than 30% | binding, % of control [4]: 83 % of control | binding, % of control (CHEK1): 100 % of control | binding, % of control (DYRK1B): 100 % of control | binding, % of control (GSK3B): 99 % of control | binding, % of control (MET): 55 % of control | binding, % of control (p38-beta): 54 % of control | binding, % of control (SRPK3): 95 % of control | binding, % of control (TRKA): 98 % of control | Emax (OPRM1; [5]): 17.4% | Emax (OPRM1; [6]): 0.2% | Emax (GR; [5]): 0.41% | Max inhibition (antagonist mode) (GR; [6]): 33.6%
